Results on 21 compounds are retold here after patent publication US11311520B2, “Substituted dihydroimidazopyridinediones as MKNK1 and MKNK2 inhibitors” (Bayer Pharma Aktiengesellschaft, priority 2017, dated 2022).

The experiment has as its target human full-length MKNK1 (Homo sapiens (Human), UniProt Q9BUB5, T344D). Kind of experiment: MKNK1 kinase high ATP assay (TR-FRET). The class given is biochemical. The note with it: 2 mM ATP, 15 min preincubation with enzyme, GST-MKNK1 (T344D). How it is done:
MKNK1 Kinase High ATP Assay
MKNK1-inhibitory activity at high ATP of compounds of the present invention after their preincubation with MKNK1 was quantified employing the TR-FRET-based MKNK1 high ATP assay as described in the following paragraphs.
A recombinant fusion protein of Glutathione-S-Transferase (GST, N-terminally) and human full-length MKNK1 (amino acids 1-424 and T344D of accession number BAA 19885.1), expressed in insect cells using baculovirus expression system and purified via glutathione sepharose affinity chromatography, was purchased from Carna Biosciences (product no 02-145) and used as enzyme. As substrate for the kinase reaction the biotinylated peptide biotin-Ahx-IKKRKLTRRKSLKG (SEQ ID NO: 1) (C-terminus in amide form) was used, which can be purchased e.g. from the company Biosyntan (Berlin-Buch, Germany)
For the assay 50 nL of a 100 fold concentrated solution of the test compound in DMSO was pipetted into a black low volume 384 well microtiter plate (Greiner Bio-One, Frickenhausen, Germany), 2 μL of a solution of MKNK1 in aqueous assay buffer [50 mM HEPES pH 7.5, 5 mM MgCl2, 1.0 mM dithiothreitol, 0.005% (v/v) Nonidet-P40 (Sigma)] was added and the mixture was incubated for […] at 22° C. to allow pre-binding of the test compounds to the enzyme before the start of the kinase reaction. Then the kinase reaction was started by the addition of 3 μL of a solution of adenosine-tri-phosphate (ATP, 3.3 mM=>final conc. in the 5 μL assay volume is 2 mM) and substrate (0.1 μM=>final conc. in the 5 μL assay volume is 0.06 μM) in assay buffer and the resulting mixture was incubated for a reaction time of 30 min at 22° C. The concentration of MKNK1 was adjusted depending of the activity of the enzyme lot and was chosen appropriate to have the assay in the linear range, typical concentrations were in the range of 0.003 μg/mL. The reaction was stopped by the addition of 5 μL of a solution of TR-FRET detection reagents (5 nM streptavidine-XL665 [Cisbio Bioassays, Codolet, France] and 1 nM anti-ribosomal protein S6 (pSer236)-antibody from Invitrogen [#44921G] and 1 nM LANCE EU-W1024 labeled ProteinG [Perkin-Elmer, product no. AD0071]) in an aqueous EDTA-solution (100 mM EDTA, 0.1% (w/v) bovine serum albumin in 50 mM HEPES pH 7.5).
The resulting mixture was incubated for 1 h at 22° C. to allow the formation of complex between the phosphorylated biotinylated peptide and the detection reagents. Subsequently the amount of phosphorylated substrate was evaluated by measurement of the resonance energy transfer from the Eu-chelate to the streptavidine-XL. Therefore, the fluorescence emissions at 620 nm and 665 nm after excitation at 350 nm were measured in a TR-FRET reader, e.g. a Rubystar (BMG Labtechnologies, Offenburg, Germany) or a Viewlux (Perkin-Elmer). The ratio of the emissions at 665 nm and at […] was taken as the measure for the amount of phosphorylated substrate. The data were normalised (enzyme reaction without inhibitor=0% inhibition, all other assay components but no enzyme=100% inhibition).

Counter-ions that a name gives are not always drawn.

Chain of human full-length MKNK1 (Q9BUB5 other isoform, or with tags, fused parts or gaps T344D): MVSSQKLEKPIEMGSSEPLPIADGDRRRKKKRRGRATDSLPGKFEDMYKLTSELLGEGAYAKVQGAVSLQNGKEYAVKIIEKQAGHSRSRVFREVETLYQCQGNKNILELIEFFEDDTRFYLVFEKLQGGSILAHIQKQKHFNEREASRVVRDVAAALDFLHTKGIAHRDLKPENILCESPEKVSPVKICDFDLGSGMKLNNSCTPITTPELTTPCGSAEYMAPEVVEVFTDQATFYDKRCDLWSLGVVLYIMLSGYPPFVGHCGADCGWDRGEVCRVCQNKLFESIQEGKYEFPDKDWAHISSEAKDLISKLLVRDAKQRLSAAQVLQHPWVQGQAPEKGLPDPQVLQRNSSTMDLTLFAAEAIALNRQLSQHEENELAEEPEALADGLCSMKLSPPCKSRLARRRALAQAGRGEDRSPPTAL

In turn, `Cc1cc(Nc2ncnc3sc(C(=O)N4C[C@@H]5C[C@H]4CN5C)cc23)c(=O)n2c1C(=O)NC21CCCCC1` [Example 43, 8′-Methyl-6′-[(6-{[(1S,4S)-5-methyl-2,5-diazabicyclo[2.2.1]hept-2-yl]carbonyl}thieno[2,3-d]pyrimidin-4-yl)amino]-2′H-spiro[cyclohexane-1,3′-imidazo[1,5-a]pyridine]-1′,5′-dione] yielded an IC50 of 2.9 nM.
`Cc1cc(Nc2ncnc3sc(C(=O)NCCN(C)C)cc23)c(=O)n2c1C(=O)NC2(C)C` [Example 137, N-[2-(Dimethylamino)ethyl]-4-[(3,3,8-trimethyl-1,5-dioxo-1,2,3,5-tetrahydroimidazo[1,5-a]pyridin-6-yl)amino]thieno[2,3-d]pyrimidine-6-carboxamide] registered an IC50 of 21.1 nM.
On to `Cc1cc(Nc2ncnc3[nH]cnc23)c(=O)n2c1C(=O)NC21CCCC1` [Example 67, 8′-methyl-6′-(9H-purin-6-ylamino)-2′H-spiro[cyclopentane-1,3′-imidazo[1,5-a]pyridine]-1′,5′-dione], for which the concentration for half-maximal inhibition (IC50) stood at 0.7 nM.
Compound `Cc1cc(Nc2ncnc3sc(C(=O)N4CC(C#N)C4)cc23)c(=O)n2c1C(=O)NC21CCC(F)(F)CC1` [Example 85, 1-({4-[(4,4-Difluoro-8′-methyl-1′,5′-dioxo-1′,5′-dihydro-2′H-spiro[cyclohexane-1,3′-imidazo[1,5-a]pyridin]-6′-yl)amino]thieno[2,3-d]pyrimidin-6-yl}carbonyl)azetidine-3-carbonitrile] registered an IC50 of 25.2 nM. Compared with the last compound, the IC50 is about 36-fold higher.
The compound `Cc1cc(Nc2ncnc3c2CN(S(=O)(=O)c2ccccn2)C3)c(=O)n2c1C(=O)NC21CCCCC1` [Example 79, 8′-Methyl-6′-{[6-(pyridin-2-ylsulfonyl)-6,7-dihydro-5H-pyrrolo[3,4-d]pyrimidin-4-yl]amino}-2′H-spiro[cyclohexane-1,3′-imidazo[1,5-a]pyridine]-1′,5′-dione] showed an IC50 of 122 nM.
As to `COCCN(C)C(=O)c1cc2c(Nc3cc(C)c4n(c3=O)C3(CCCCC3)NC4=O)ncnc2s1` [Example 11, N-(2-Methoxyethy)-N-methyl-4-[(8′-methyl-1′,5′-dioxo-1′,5′-dihydro-2′H-spiro[cyclohexane-1,3′-imidazo[1,5-a]pyridin]-6′-yl)amino]thieno[2,3-d]pyrimidine-6-carboxamide], 36.9 nM corresponded to half-maximal inhibition (IC50).
The compound `Cc1cc(Nc2ncnc(N)n2)c(=O)n2c1C(=O)NC21CCC(F)(F)CC1` [Example 94, 6′-[(4-Amino-1,3,5-triazin-2-yl)amino]-4,4-difluoro-8′-methyl-2′H-spiro[cyclohexane-1,3′-imidazo[1,5-a]pyridine]-1′,5′-dione] returned an IC50 of 27.8 nM.
In the case of `Cc1cc(Nc2ncnc3[nH]ncc23)c(=O)n2c1C(=O)NC21CCCCC1` [Example 7, 8′-Methyl-6′-(1H-pyrazolo[3,4-d]pyrimidin-4-ylamino)-2′H-spiro[cyclohexane-1,3′-imidazo[1,5-a]pyridine]-1′,5′-dione], 2 nM corresponded to half-maximal inhibition (IC50).
The compound `Cc1cc(Nc2ncnc3[nH]ccc23)c(=O)n2c1C(=O)NC21CCC(F)(F)CC1` [Example 92, 4,4-Difluoro-8′-methyl-6′-(7H-pyrrolo[2,3-d]pyrimidin-4-ylamino)-2′H-spiro[cyclohexane-1,3′-imidazo[1,5-a]pyridine]-1′,5′-dione hydrochloride] showed a half-inhibitory concentration (IC50) (hydrochloride) of 1.2 nM.
`CCOC(=O)Cn1cnc2c(Nc3cc(C)c4n(c3=O)C3(CCCCC3)NC4=O)ncnc21` [Example 45, Ethyl {6-[(8′-methyl-1′,5′-dioxo-1′,5′-dihydro-2′H-spiro[cyclohexane-1,3′-imidazo[1,5-a]pyridin]-6′-yl)amino]-9H-purin-9-yl}acetate] gave an IC50 of 603 nM.
Turning to `Cc1cc(Nc2ncnc3ccc(Cl)cc23)c(=O)n2c1C(=O)NC21CCCCC1` [Example 46, 6′-[(6-Chloroquinazolin-4-yl)amino]-8′-methyl-2′H-spiro[cyclohexane-1,3′-imidazo[1,5-a]pyridine]-1′,5′-dione], inhibition was half-maximal at 4.1 nM (IC50).
Turning to `Cc1cc(Nc2ncnc3[nH]ncc23)c(=O)n2c1C(=O)NC21CCCCC1` [Example 34, 8′-Methyl-6′-(1H-pyrazolo[3,4-d]pyrimidin-4-ylamino)-2′H-spiro[cyclohexane-1,3′-imidazo[1,5-a]pyridine]-1′,5′-dione hydrochloride], under “hydrochloride”, half-maximal inhibition (IC50) was put at 8.1 nM.
Take `COc1cccc2ncnc(Nc3cc(C)c4n(c3=O)C3(CCCCC3)NC4=O)c12` [Example 118, 6′-[(5-Methoxyquinazolin-4-yl)amino]-8′-methyl-2′H-spiro[cyclohexane-1,3′-imidazo[1,5-a]pyridine]-1′,5′-dione]: 66.3 nM corresponded to half-maximal inhibition (IC50).
Same read-out and setting: as for `Cc1cc(Nc2ncnc3ccc(F)cc23)c(=O)n2c1C(=O)NC21CCCCC1` [Example 113, 6′-[(6-Fluoroquinazolin-4-yl)amino]-8′-methyl-2′H-spiro[cyclohexane-1,3′-imidazo[1,5-a]pyridine]-1′,5′-dione], the figure is 15.4 nM.
For `Cc1cc(Nc2ncnc3sc(C(=O)N4C[C@@H]5C[C@H]4CO5)cc23)c(=O)n2c1C(=O)NC21CCCCC1` [Example 66, 8′-Methyl-6′-({6-[(1S,4S)-2-oxa-5-azabicyclo[2.2.1]hept-5-ylcarbonyl]thieno[2,3-d]pyrimidin-4-yl}amino)-2′H-spiro[cyclohexane-1,3′-imidazo[1,5-a]pyridine]-1′,5′-dione], the IC50 came to 9 nM.
`Cc1cc(Nc2ncnc3sc(C(=O)NCCN(C)C)cc23)c(=O)n2c1C(=O)NC21CCCCC1` [Example 25, N-[2-(Dimethylamino)ethyl]-4-[(8′-methyl-1′,5′-dioxo-1′,5′-dihydro-2′H-spiro[cyclohexane-1,3′-imidazo[1,5-a]pyridin]-6′-yl)amino]thieno[2,3-d]pyrimidine-6-carboxamide] came in with an IC50 of 1.9 nM.
`Cc1cc(Nc2ncnc3sc(C(=O)N4CC(NC(=O)OC(C)(C)C)C4)cc23)c(=O)n2c1C(=O)NC2(C)C` [Example 139, tert-Butyl [1-({4-[(3,3,8-trimethyl-1,5-dioxo-1,2,3,5-tetrahydroimidazo[1,5-a]pyridin-6-yl)amino]thieno[2,3-d]pyrimidin-6-yl}carbonyl)azetidin-3-yl]carbamate]: the IC50 turned out to be 24.1 nM.
The same measure, in the same setting: next, `Cc1cc(Nc2ncnc3sccc23)c(=O)n2c1C(=O)NC21CCC1` [Example 149, 8′-Methyl-6′-(thieno[2,3-d]pyrimidin-4-ylamino)-2′H-spiro[cyclobutane-1,3′-imidazo[1,5-a]pyridine]-1′,5′-dione]: 2.3 nM; `Cc1cc(Nc2ncnc3sc(C(=O)N4CC(N)C4)cc23)c(=O)n2c1C(=O)NC2(C)C` [Example 140, 6-({6-[(3-Aminoazetidin-1-yl)carbonyl]thieno[2,3-d]pyrimidin-4-yl}amino)-3,3,8-trimethyl-2,3-dihydroimidazo[1,5-a]pyridine-1,5-dione]: 22.3 nM.
In turn, `Cc1cc(Nc2ncnc3sccc23)c(=O)n2c1C(=O)NC21CCCCC1` [Example 31, 8′-Methyl-6′-(thieno[2,3-d]pyrimidin-4-ylamino)-2′H-spiro[cyclohexane-1,3′-imidazo[1,5-a]pyridine]-1′,5′-dione hydrochloride] had an IC50 (hydrochloride) of 16.8 nM.
The compound `Cc1cc(Nc2ncnc3ccc(F)cc23)c(=O)n2c1C(=O)NC21CSC1` [Example 176, 6-[(6-fluoroquinazolin-4-yl)amino]-8-methyl-2H-spiro[imidazo[1,5-a]pyridine-3,3′-thietane]-1,5-dione] had an IC50 of 19 nM.
